Source: US20150057246A1, “SILYL-CONTAINING HETEROCYCLIC COMPOUNDS AND METHODS OF USE THEREOF FOR THE TREATMENT OF VIRAL DISEASES” (priority 2012, published 2015)
Where two headings read alike, the source gives them in different places.

Tests used:
HCV 1a Y93H replicon = test: Cell-based HCV replicon assay (TaqMan), 1a Y93H mutant replicon; conditions: EC90 = concentration for ΔCT=3.2 over baseline
Protocol: (§1) Measurement of inhibition by compounds of the present invention was performed using the HCV replicon system. Several different replicons encoding different HCV genotypes or mutations were used. In addition, potency measurements were made using different formats of the replicon assay, including different ways of measurements and different plating formats. See Jan M. Vrolijk et al., A replicons-based bioassay for the measurement of interferons in patients with chronic hepatitis C, 110 J. VIROLOGICAL METHODS 201 (2003); Steven S. Carroll et al., Inhibition of Hepatitis C Virus RNA Replication by 2′-Modified Nucleoside Analogs, 278(14) J. BIOLOGICAL CHEMISTRY 11979 (2003). However, the underlying principles are common to all of these determinations, and are outlined below.
(§2) TaqMan®-Based Assay Protocol:
(§3) Compounds of the present invention were assayed for cell-based anti-HCV activity using the following protocol. Replicon cells were seeded at 5000 cells/well in 96-well collagen I-coated Nunc plates in the presence of the test compound. Various concentrations of test compound, typically in 10 serial 2-fold dilutions, were added to the assay mixture, with the starting concentration ranging from 250 μM to 1 μM. The final concentration of DMSO was 0.5%, fetal bovine serum was 5%, in the assay media. Cells were harvested on day 3 by the addition of 1× cell lysis buffer (Ambion cat #8721). The replicon RNA level was measured using real time PCR (TaqMan® assay). The amplicon was located in 5B. The PCR primers were: 5B.2F, ATGGACAGGCGCCCTGA (SEQ. ID NO. 1); 5B.2R, […] (SEQ. ID NO. 2); the probe sequence was FAM-labeled CACGCCATGCGCTGCGG (SEQ. ID NO. 3). GAPDH RNA was used as endogenous control and was amplified in the same reaction as NS5B (multiplex PCR) using primers and VIC-labeled probe recommended by the manufacturer (PE Applied Biosystem). The real-time […] reactions were run on ABI PRISM 7900HT Sequence Detection System using the following program: 48° C. for 30 minutes, 95° C. for 10 minutes, 40 cycles of 95° C. for 15 sec, 60° C. for 1 minute. The ΔCT values (CT5B-CTGAPDH) were plotted against the concentration of test compound and fitted to the sigmoid dose-response model using XLfit4 (MDL). EC50 was defined as the concentration of inhibitor necessary to achieve ΔCT=1 over the projected baseline; EC90 the concentration necessary to achieve ΔCT=3.2 over the baseline. Alternatively, to quantitate the absolute amount of replicon RNA, a standard curve was established by including serially diluted T7 transcripts of replicon RNA in the Taqman assay. All TaqMan® reagents were from PE Applied Biosystems. Such an assay procedure was described in detail in e.g. Malcolm et al., Antimicrobial Agents and Chemotherapy 50: 1013-1020 (2006).
(§4) HCV replicon EC50 assay data for various replicons and mutants was calculated for selected compounds of the present invention using this method and is provided in the tables above herein.

HCV 2b replicon = test: Cell-based HCV replicon assay (TaqMan), genotype 2b replicon; conditions: EC90 = concentration for ΔCT=3.2 over baseline
Protocol: as §1, §2, §3, §4

HCV 1a replicon = test: Cell-based HCV replicon assay (TaqMan), genotype 1a replicon; conditions: HCV genotype 1a replicon cells, replicon RNA by real time PCR, day 3, EC90 = concentration for ΔCT=3.2 over baseline
Protocol: as §1, §2, §3, §4

[1] = Hepatitis C virus, 72 h, read-out: 1a Y93H EC90, HCV 1a Y93H mutant replicon cells, replicon RNA by real time PCR, day 3
[2] = Hepatitis C virus, 72 h, read-out: 2b EC90, HCV genotype 2b replicon cells, replicon RNA by real time PCR, day 3
[3] = read-out: 2b EC90, HCV genotype 2b replicon cells, replicon RNA by real time PCR, day 3

| Structure (SMILES) | EC90 (HCV 1a Y93H replicon; [1]) | EC90 (HCV 2b replicon; [2]) | EC90 (HCV 1a replicon; Hepatitis C virus, 72 h) | EC90 (HCV 2b replicon; [3]) | EC90 (HCV 1a replicon) | EC90 (HCV 1a Y93H replicon; read-out: 1a Y93H EC90, HCV 1a Y93H mutant replicon cells, replicon RNA by real time PCR, day 3) |
| --- | --- | --- | --- | --- | --- | --- |
| COC(=O)N[C@H](C(=O)N1CCC[C@H]1c1ncc(-c2ccc(-c3ccc4c(ccc5nc([C@@H]6C[Si](C)(C)CN6C(=O)[C@@H](NC(=O)OC)C(C)OC)[nH]c54)c3)cc2)[nH]1)C(C)OC (some centres unmarked) [Compound 19] | > 100 nM | > 100 nM | 0.036 nM |  |  |  |
| CCC(C)[C@H](NC(=O)OC)C(=O)N1CCC[C@H]1c1ncc(-c2ccc(-c3ccc4c(ccc5nc([C@@H]6C[Si](C)(C)CN6C(=O)[C@@H](NC(=O)OC)C(C)CC)[nH]c54)c3)cc2)[nH]1 (some centres unmarked) [Compound 20] | > 100 nM | > 100 nM | 0.063 nM |  |  |  |
| CCN(CC)[C@@H](C(=O)N1CCC[C@H]1c1ncc(-c2ccc(-c3ccc4c(ccc5nc([C@@H]6C[Si](C)(C)CN6C(=O)[C@@H](c6ccccc6)N(CC)CC)[nH]c54)c3)cc2)[nH]1)c1ccccc1 [Compound 21] | > 100 nM | 0.39 nM | 0.25 nM |  |  |  |
| COC(=O)N[C@H](C(=O)N1C[Si](C)(C)C[C@H]1c1ncc(-c2ccc(-c3ccc4c(ccc5nc([C@@H]6CCCN6C(=O)[C@@H](NC(=O)OC)C6CCCC6)[nH]c54)c3)cc2)[nH]1)C1CCCC1 [Compound 35] | 555 nM | 566 nM | 0.5 nM |  |  |  |
| COC(=O)N[C@H](C(=O)N1C[Si](C)(C)C[C@H]1c1ncc(-c2ccc(-c3ccc4c(ccc5nc([C@@H]6CCCN6C(=O)[C@@H](NC(=O)OC)[C@@H](C)OC)[nH]c54)c3)cc2)[nH]1)[C@@H](C)OC [Compound 36] | 276 nM | > 1000 nM | 0.152 nM |  |  |  |
| COC(=O)N[C@@H](Cc1cccc(O)c1)C(=O)N1C[Si](C)(C)C[C@H]1c1ncc(-c2ccc(-c3ccc4c(ccc5nc([C@@H]6CCCN6C(=O)[C@H](Cc6cccc(O)c6)NC(=O)OC)[nH]c54)c3)cc2)[nH]1 [Compound 37] | > 1000 nM | > 1000 nM | 2.52 nM |  |  |  |
| COC(=O)N[C@@H](Cn1ncnn1)C(=O)N1C[Si](C)(C)C[C@H]1c1ncc(-c2ccc(-c3ccc4c(ccc5nc([C@@H]6CCCN6C(=O)[C@H](Cn6ncnn6)NC(=O)OC)[nH]c54)c3)cc2)[nH]1 [Compound 38] | > 1000 nM | 408 nM | 2.57 nM |  |  |  |
| COC(=O)N1CCOC[C@H]1C(=O)N1C[Si](C)(C)C[C@H]1c1ncc(-c2ccc(-c3ccc4c(ccc5nc([C@@H]6CCCN6C(=O)[C@@H]6COCCN6C(=O)OC)[nH]c54)c3)cc2)[nH]1 [Compound 39] | > 1000 nM | > 1000 nM | 149 nM |  |  |  |
| COC(=O)N[C@@H](Cc1cn(C)cn1)C(=O)N1C[Si](C)(C)C[C@H]1c1ncc(-c2ccc(-c3ccc4c(ccc5nc([C@@H]6CCCN6C(=O)[C@H](Cc6cn(C)cn6)NC(=O)OC)[nH]c54)c3)cc2)[nH]1 [Compound 40] | > 1000 nM | > 1000 nM | 2.57 nM |  |  |  |
| CC[C@H](C)[C@H](NC(=O)OC)C(=O)N1C[Si](C)(C)C[C@H]1c1ncc(-c2ccc(-c3ccc4c(ccc5nc([C@@H]6CCCN6C(=O)[C@@H](NC(=O)OC)[C@@H](C)CC)[nH]c54)c3)cc2)[nH]1 [Compound 41] | 614 nM |  |  | 271 nM | 0.19 nM |  |
| CC[C@H](NC(=O)OC)C(=O)N1C[Si](C)(C)C[C@H]1c1ncc(-c2ccc(-c3ccc4c(ccc5nc([C@@H]6CCCN6C(=O)[C@H](CC)NC(=O)OC)[nH]c54)c3)cc2)[nH]1 [Compound 44] | 302 nM | 171 nM | 0.3 nM |  |  |  |
| COC(=O)N[C@@H](CCSC)C(=O)N1C[Si](C)(C)C[C@H]1c1ncc(-c2ccc(-c3ccc4c(ccc5nc([C@@H]6CCCN6C(=O)[C@H](CCSC)NC(=O)OC)[nH]c54)c3)cc2)[nH]1 [Compound 45] | > 1000 nM | 563 nM | 0.85 nM |  |  |  |
| COC(=O)N[C@@H](Cc1ccccc1)C(=O)N1C[Si](C)(C)C[C@H]1c1ncc(-c2ccc(-c3ccc4c(ccc5nc([C@@H]6CCCN6C(=O)[C@H](Cc6ccccc6)NC(=O)OC)[nH]c54)c3)cc2)[nH]1 [Compound 46] | > 1000 nM | > 1000 nM | 4.75 nM |  |  |  |
| CC[C@H](C)[C@H](NC(=O)OC)C(=O)N1C[Si](C)(C)C[C@H]1c1ncc(-c2ccc(-c3ccc4c(ccc5nc([C@@H]6CCCN6C(=O)[C@@H](NC(=O)OC)[C@@H](C)CC)[nH]c54)c3)cc2)[nH]1 [Compound 47] |  |  |  | 578 nM | 0.59 nM | 953 nM |
| CCCC(NC(=O)OC)C(=O)N1C[Si](C)(C)C[C@H]1c1ncc(-c2ccc(-c3ccc4c(ccc5nc([C@@H]6CCCN6C(=O)[C@H](CCC)NC(=O)OC)[nH]c54)c3)cc2)[nH]1 (some centres unmarked) [Compound 48] | 761 nM | 882 nM | 0.64 nM |  |  |  |
| COC(=O)N[C@H](C)C(=O)N1C[Si](C)(C)C[C@H]1c1ncc(-c2ccc(-c3ccc4c(ccc5nc([C@@H]6CCCN6C(=O)[C@@H](C)NC(=O)OC)[nH]c54)c3)cc2)[nH]1 [Compound 49] | > 1000 nM | > 1000 nM | 386 nM |  |  |  |
| COC(=O)N[C@@H](C(=O)N1C[Si](C)(C)C[C@H]1c1ncc(-c2ccc(-c3ccc4c(ccc5nc([C@@H]6CCCN6C(=O)[C@H](NC(=O)OC)C6CC6)[nH]c54)c3)cc2)[nH]1)C1CC1 [Compound 50] | > 1000 nM | > 1000 nM | > 1000 nM |  |  |  |
| COC(=O)N[C@H](C(=O)N1C[Si](C)(C)C[C@H]1c1ncc(-c2ccc(-c3ccc4c(ccc5nc([C@@H]6CCCN6C(=O)[C@@H](NC(=O)OC)C6CC6)[nH]c54)c3)cc2)[nH]1)C1CC1 [Compound 51] | > 1000 nM | > 1000 nM | 0.51 nM |  |  |  |
| COC(=O)N[C@H](C(=O)N1C[Si](C)(C)C[C@H]1c1ncc(-c2ccc(-c3ccc4c(ccc5nc([C@@H]6CCCN6C(=O)[C@@H](NC(=O)OC)C6CCCOCC6)[nH]c54)c3)cc2)[nH]1)C1CCCOCC1 (some centres unmarked) [Compound 52] | > 1000 nM | 37 nM | 2.3 nM |  |  |  |
| COC(=O)N[C@@H](C(=O)N1C[Si](C)(C)C[C@H]1c1ncc(-c2ccc(-c3ccc4c(ccc5nc([C@@H]6CCCN6C(=O)[C@H](NC(=O)OC)c6ccccc6)[nH]c54)c3)cc2)[nH]1)c1ccccc1 [Compound 53] | > 1000 nM | > 1000 nM | 7.27 nM |  |  |  |
| COC(=O)N1CCC[C@H]1C(=O)N1C[Si](C)(C)C[C@H]1c1ncc(-c2ccc(-c3ccc4c(ccc5nc([C@@H]6CCCN6C(=O)[C@@H]6CCCN6C(=O)OC)[nH]c54)c3)cc2)[nH]1 [Compound 54] | > 1000 nM | > 1000 nM | > 1000 nM |  |  |  |
| CC(C)(C)OC(=O)N1C[Si](C)(C)C[C@H]1c1nc2ccc3cc(-c4ccc(-c5cnc([C@@H]6C[C@H]7C[C@H]7N6C(=O)OC(C)(C)C)[nH]5)cc4)ccc3c2[nH]1 [Compound 97] | > 1000 nM |  |  |  | > 1 nM |  |
| COC(=O)N[C@H](C(=O)N1C[Si](C)(C)C[C@H]1c1nc2ccc3cc(-c4ccc(-c5[nH]c([C@@H]6C[C@H]7C[C@H]7N6C(=O)[C@@H](NC(=O)OC)C(C)C)nc5Cl)cc4)ccc3c2[nH]1)C(C)C [Compound 102] | 140 nM |  | 0.048 nM |  |  |  |
| CC(C)(C)OC(=O)N1C[Si](C)(C)C[C@H]1c1nc2ccc3cc(-c4ccc(-c5nc(Cl)c([C@@H]6C[C@H]7C[C@H]7N6C(=O)OC(C)(C)C)[nH]5)cc4)ccc3c2[nH]1 [Compound 109] | > 100 nM |  | > 1 nM |  |  |  |
| CC(C)(C)OC(=O)N1CCC[C@H]1c1ncc(-c2ccc3cc(-c4ccc5c(ccc6nc([C@@H]7C[Si](C)(C)CN7C(=O)OC(C)(C)C)[nH]c65)c4)ccc3c2)[nH]1 [Compound 110] | > 1000 nM |  | > 1000 nM |  |  |  |
